Experimental findings from patent US7223759B2, “Antibacterial 3,5-diaminopiperidine-substituted aromatic and heteroaromatic compounds” (Anadys Pharmaceuticals, Inc., priority 2003, dated 2007) are described below.

One test deals with Escherichia coli (ATCC25922) or Staphylococcus aureus (ATCC25923). As to the kind of experiment: Antibacterial MIC, microdilution method in Mueller-Hinton medium. Format: cell-based. The settings on record: Escherichia coli, 18 h, MIC in E. coli or S. aureus; two-fold serial dilutions 64 to 0.5 μg/ml in duplicate; 18 hours of incubation at 35° C.; read-out: Potency (MIC). On the procedure: The antibacterial activity of the Formula I compounds was evaluated against standard bacterial strains by determining the minimal inhibitory concentration (MIC) to block growth. Each drug was assayed by the microdilution method in Mueller-Hinton medium, as recommended by the National Committee for Clinical Laboratory Standards. Approved Standard M7-A5: Methods for Dilution Antimicrobial Susceptibility Tests for Bacteria That Grow Aerobically 5th Ed. (National Committee for Clinical Laboratory Standards, Wayne, Pa., 2000). The tested bacterial strains included Escherichia coli (American Type Collection ATCC25922), Staphylococcus aureus (ATCC25923), and Pseudomonas aeruginosa (ATCC27853). Two-fold serial dilutions of each compound ranging from 64 to 0.5 μg/ml were tested in duplicate. The MIC was determined as the lowest concentration of each compound that prevented bacterial growth after 18 hours of incubation at 35° C. […] The mass of each compound in the Table was confirmed by LC-MS.
What is called MIC is the lowest concentration found to suppress growth. On to `Cl.NC(=O)c1ccc(Nc2nc(N3C[C@H](N)C[C@H](N)C3)nc(N3C[C@H](N)C[C@H](N)C3)n2)nc1` [N-(5-carbamoyl-pyridin-2-yl)-4,6-Bis-((3R,5S)-3,5-diamino-piperidin-1-yl)-[1,3,5]triazine-2-amine], for which the MIC is > 64 µg/mL.
On to `N[C@@H]1C[C@H](N)CN(c2nc(NNc3ccc([N+](=O)[O-])cc3[N+](=O)[O-])nc(N3C[C@H](N)C[C@H](N)C3)n2)C1` [N-(4,6-Bis-((3R,5S)-3,5-diamino-piperidin-1-yl)-[1,3,5]triazin-2-yl)-N′-(2,4-Dinitro-phenyl)-hydrazine], for which the MIC was > 64 µg/mL.
The same measure, in the same setting: in the case of `Cl.O=C(Nc1ccc(Nc2nc(N3CCCCC3)nc(N3CCCCC3)n2)cc1O)c1c(Cl)cccc1Cl` [N-[4-(2,6-dichloro-benzoylamino)-3-hydroxy-phenyl]-4,6-Bis-((3R,5S)-3,5-diamine-piperidin-1-yl)-[1,3,5]triazine-2-amine] it was < 64 µg/mL; in that of `Cl.NC1CCCN(c2nc(Nc3ccc(Cl)c(Cl)c3)nc(N3CCCCC3)n2)C1` [(3R,5S)-1-[4-(3-Amino-piperidin-1-yl)-6-(3,4-dichloro-phenylammino)-[1,3,5]triazin-22-yl]-piperidine-3,5-diamine], < 64 µg/mL.
As for `CC(=O)N1CCN(c2nc(Nc3ccc(S(=O)(=O)Nc4ccc5cn[nH]c5c4)cc3)nc(N3C[C@H](N)C[C@H](N)C3)n2)CC1` [4-[4-(4-Acetyl-piperazin-1-yl)-6-((3R,5S)-3,5-diamino-piperidin-1-yl)-[1,3,5]triazin-2-ylamino]-N-(1H-indazol-6-yl)-benzenesulfonamide], the MIC is > 64 µg/mL.
Same read-out and setting: the figure for `N[C@@H]1C[C@H](N)CN(c2nc(Nc3cccc(NC(=O)c4cc5cccc(O)c5cc4O)c3)nc(N3C[C@H](N)C[C@H](N)C3)n2)C1` [N-{3-[(3,5-dihydroxy-naphthalene-2-carbonyl)-amino]-phenyl}-4,6-Bis-((3R,5S)-3,5-diamino-piperidin-1-yl)-[1,3,5]triazine-2-amine] is < 64 µg/mL; for `Cc1ccc(Nc2nc(N3C[C@H](N)C[C@H](N)C3)nc(N3C[C@H](N)C[C@H](N)C3)n2)cc1C.Cl` [N-(3,4-dimethyl-phenyl)-4,6-Bis-((3R,5S)-3,5-ddiamino-piperidin-1-yl)-[1,3,5]triazine-2-amine] it is < 64 µg/mL; for `COc1ccc(NC(C)=O)cc1Nc1nc(N2C[C@H](N)C[C@H](N)C2)nc(N2C[C@H](N)C[C@H](N)C2)n1` [N-(5-acetylamino-2-methoxy-phenyl)-4,6-Bis-((3R,5S)-3,5-diamino-piperidin-1-yl)-[1,3,5]triazine-2-amine] it is > 64 µg/mL.
Turning to `Cl.O=S(=O)(c1cc(Nc2nc(N3CCCCC3)nc(N3CCCCC3)n2)ccc1N1CCOCC1)N1CCOCC1` [N-[3-morpholine-4-sulfonyl)-4-morpholin-4-yl-phenyl]-4,6-Bis-((3R,5S)-3,5-diamino-piperidin-1-yl)-[1,3,5]triazine-2-amine], the MIC is > 64 µg/mL.
Still for that read-out and setting: in the case of `N[C@@H]1C[C@H](N)CN(c2nc(Nc3ccc(SC(F)(F)F)cc3)nc(N3C[C@H](N)C[C@H](N)C3)n2)C1` [N-(4-trifluoromethylsulfanyl-phenyl)-4,6-Bis-((3R,5S)-3,5-diamino-piperidin-1-yl)-[1,3,5]triazine-2-amine] it was < 64 µg/mL.

The same test, now with this note: Escherichia coli, 18 h, read-out: Potency (MIC).
Turning to `N#Cc1ccc(NC(=O)c2ccc(Nc3nc(N4C[C@H](N)C[C@H](N)C4)nc(N4C[C@H](N)C[C@H](N)C4)n3)cc2O)cc1` [N-[4-(4-cyano-phenylcarbamoyl)-3-hydroxy-phenyl]-4,6-Bis-((3R,5S)-3,5-diamino-piperidin-1-yl)-[1,3,5]triazine-2-amine], the MIC is < 64 µg/mL.
As for `Cc1ccc(C(=O)Nc2ccc(Nc3nc(N4C[C@H](N)C[C@H](N)C4)nc(N4C[C@H](N)C[C@H](N)C4)n3)cc2O)c(O)n1` [N-{3-hydroxy-4-[(2-hydroxy-6-methyl-pyridine-3-carbonyl)-amino]-phenyl}-4,6-Bis-((3R,5S)-3,5-diamino-piperidin-1-yl)-[1,3,5]triazine-2-amine], the MIC was < 64 µg/mL.
Take `N[C@@H]1C[C@H](N)CN(c2nc(Nc3ccc(NC(=O)c4ccc5ccccc5c4O)cc3)nc(N3C[C@@H](N)[C@@H](N)C3)n2)C1` [1-Hydroxy-naphthalene-2-carboxylic acid {4-[4-((3R,5S)-3,5-diamino-piperidin-1-yl)-6-((3R,4S)-3,4-diamino-pyrrolidin-1-yl)-[1,3,5]triazin-2-ylamino]-phenyl}-amide]: the minimum inhibitory concentration (MIC) is < 16 µg/mL.
On the same count and under the same terms, in the case of `CCn1c2ccccc2c2cc(Nc3nc(N4C[C@H](N)C[C@H](N)C4)nc(N4C[C@H](N)C[C@H](N)C4)n3)ccc21` [N-(9-ethyl-9H-carbazol-3-yl)-4,6-Bis-((3R,5S)-3,5-diamino-piperidin-1-yl)-[1,3,5]triazine-2-amine] it was < 64 µg/mL.
On to `N[C@@H]1C[C@H](N)CN(c2cc(Nc3ccc(NC(=O)c4ccc5ccccc5c4O)cc3)nc(N3C[C@H](N)C[C@H](N)C3)c2)C1` [1-Hydroxy-naphthalene-2-carboxylic acid [4-(4,6-Bis-((3R,5S)-3,5-diamino-piperidin-1-yl)-pyridin-2-ylamino)-phenyl]-amide], for which the MIC is < 16 µg/mL.
`N[C@@H]1C[C@H](N)CN(c2nc(Nc3ccc(NS(=O)(=O)c4cc(Cl)cc(Cl)c4)c(O)c3)nc(N3C[C@H](N)C[C@H](N)C3)n2)C1` [N-[4-(3,5-dichloro-benzenesulfonylamino)-3-hydroxy-phenyl]-4,6-Bis-((3R,5S)-3,5-diamino-piperidin-1-yl)-[1,3,5]triazine-2-amine]: the minimum inhibitory concentration (MIC) was < 64 µg/mL.
On the same count and under the same terms, the figure for `N[C@@H]1C[C@H](N)CN(c2nc(Nc3ccc(S(=O)(=O)Nc4ccc5cn[nH]c5c4)cc3)nc(N3C[C@@H](O)[C@@H](O)C3)n2)C1` [4-[4-((3S,5R)-3,5-Diamino-piperidin-1-yl)-6-((3R,4S)-3,4-dihydroxy-pyrrolidin-1-yl)-[1,3,5]triazin-2-ylamino]-N-(1H-indazol-6-yl)-benzenesulfonamide] is > 64 µg/mL; for `NC[C@@H]1C[C@@H](O)CN1c1nc(Nc2ccc3c(c2)C(=O)c2ccccc2-3)nc(N2C[C@H](N)C[C@H](N)C2)n1` [2-[4-((2S,4R)-2-Aminomethyl-4-hydroxy-pyrrolidin-1-yl)-6-((3R,5S)-3,5-diamino-piperidin-1-yl)-[1,3,5]triazin-2-ylamino]-fluoren-9-one] it is > 64 µg/mL.
The same measure, in the same setting: in the case of `NC1CN(c2nc(Nc3ccc(NC(=O)c4ccc(Cl)cc4)c(O)c3)nc(N3C[C@H](N)C[C@H](N)C3)n2)C1` [N-{4-[4-(3-Amino-azetidin-1-yl)-6-((3R,5S)-3,5-diamino-piperidin-1-yl)-[1,3,5]triazin-2-ylamino]-2-hydroxy-phenyl}-4-chloro-benzamide] it was < 16 µg/mL; in that of `Cc1ccc(S(=O)(=O)N(Cc2ccccc2)c2ccc(Nc3nc(N(CCN)CCN)nc(N4C[C@H](N)C[C@H](N)C4)n3)c(O)c2)cc1` [N-Benzyl-N-{4-[4-[bis-(2-amino-ethyl)-amino]-6-((3R,5S)-3,5-diamino-piperidin-1-yl)-[1,3,5]triazin-2-ylamino]-3-hydroxy-phenyl}-4-methyl-benzenesulfonamide], < 64 µg/mL.
As for `N[C@@H]1C[C@H](N)CN(c2nc(Nc3ccc(NC(=O)c4ccc(Cl)cc4)c(O)c3)nc(N3C[C@@H](N)C[C@@H](O)C3)n2)C1` [N-{4-[4-((3S,5R)-3-Amino-5-hydroxy-piperidin-1-yl)-6-((3S,5R)-3,5-diamino-piperidin-1-yl)-[1,3,5]triazin-2-ylamino]-2-hydroxy-phenyl}-4-chloro-benzamide], the MIC is < 16 µg/mL.
For `COc1ccc(NC(=O)c2ccc(O)cc2O)c(Nc2nc(N3C[C@H](N)C[C@H](N)C3)nc(N3C[C@H](N)C[C@H](N)C3)n2)c1` [N-[2-(2,4-dihydroxy-benzoylamino)-5-methoxy-phenyl]-4,6-Bis-((3R,5S)-3,5-diamino-piperidin-1-yl)-[1,3,5]triazine-2-amine], the MIC was > 64 µg/mL.
In the case of `N[C@@H]1C[C@H](N)CN(c2cc(Nc3ccc(NC(=O)c4ccc5ccccc5c4O)cc3)nc(N3C[C@H](N)C[C@H](N)C3)n2)C1` [1-Hydroxy-naphthalene-2-carboxylicacid {4-[2-((3R,5S)-3,5-diamino-piperidin-1-yl)-6-((3S,5R)-3,5-diamino-piperidin-1-yl)-pyrimidin-4-ylamino]-phenyl}-amide], the MIC is < 16 µg/mL.
On the same count and under the same terms, in the case of `N[C@@H]1C[C@H](N)CN(c2nc(Nc3ccc(C(=O)CC(=O)Nc4ccccc4Cl)cc3)nc(N3C[C@@H](O)[C@@H](O)C3)n2)C1` [N-(2-Chloro-phenyl)-3-{4-[4-((3S,5R)-3,5-diamino-piperidin-1-yl)-6-((3R,4S)-3,4-dihydroxy-pyrrolidin-1-yl)-[1,3,5]triazin-2-ylamino]-phenyl}-3-oxo-propionamide] it was < 64 µg/mL; in that of `N[C@@H]1C[C@H](N)CN(c2nc(Nc3ccc(S(N)(=O)=O)cc3)nc(N3C[C@H](N)C[C@H](N)C3)n2)C1` [N-(4-sulfamoyl-phenyl)-4,6-Bis-((3R,5S)-3,5-diamino-piperidin-1-yl)-[1,3,5]triazine-2-amine], > 64 µg/mL.

The same test, now with this note: MIC in E. coli or S. aureus; two-fold serial dilutions 64 to 0.5 μg/ml in duplicate; 18 hours of incubation at 35° C.
In the case of `Cl.O=C(Oc1ccccc1)c1ccc(Nc2nc(N3CCCCC3)nc(N3CCCCC3)n2)cc1O` [drawing 229, 4-[4-((3S,5R)-3,5-diamino-piperidin-1-yl)-6-((3R,5R)-3,5-dihydroxy-piperidin-1-yl)-[1,3,5]triazin-2-ylamino]-2-hydroxy-benzoic acidphenyl ester], the “Potency (MIC)” value is “− (− means MIC>64 μg/ml in E. coli or S. aureus)”.
